This is an account of results in ChEMBL document CHEMBL1149462, “Total synthesis and biological evaluation of 22-hydroxyacuminatine” (J Med Chem, 2006).

Molecules are shown by their SMILES.

The subject of one assay is P388. Nature of the assay: Cytotoxicity against P388 murine leukemic cell line. Type of assay: functional, cell-based. The settings on record: Mus musculus.
The next assay deals with P388CPT45. Nature of the assay: Cytotoxicity against topoisomerase 1-deficient subclone P388/CPT45 murine leukemic cell line. Type of assay: functional, cell-based. As to conditions: Mus musculus.

Turning to `O=c1c2cccc(CO)c2cc2n1Cc1cc3ccccc3nc1-2`, the IC50 was 35.5 µM in the assay with P388 and 43 µM in the assay on P388CPT45.

By IC50 is commonly meant the concentration at which inhibition is half-maximal. Lower therefore signals greater potency in that assay.
